Experimental data reported in patent US7087628B2, “N-heterocyclyl hydrazides as neurotrophic agents” (Ortho-McNeil Pharmaceutical, Inc., priority 2001, dated 2006).

Test system: Primary Rat Hippocampal Cells
Experiment: Neurite outgrowth assay in primary rat hippocampal cells (MAP-2 immunofluorescence)
Type: cell-based
Conditions: neurite outgrowth response reported as percent of DMSO-treated control; MAP-2 fluorescence; cells 7 days in culture
Experimental: Hippocampal cells were dissected from the brains of embryonic day 18 rat pups and dissociated with trypsin (1 mg/mL) and trituration. Cells were seeded at 30,000 cells/well in 96-well plates filled with 100 μL MEM and 10% FBS. At 7 days in culture, cells were fixed with 4% paraformaldehyde and immuno-fluorescence was performed.
Cultures were incubated with normal horse serum (1:50; Vector Labs) for about 20 min, rinsed and then incubated with primary antibody, microtubule associated-protein 2 (anti-mouse MAP-2; 1:1000; Chemicon) for about 2 h at about RT. Following primary antibody, cultures were rinsed and incubated with fluorescein anti-mouse IgG (rat absorbed; 1:50; Vector Labs) for about 1 h. After fluorescein incubation, the cultures were rinsed and read in PBS on a fluorescent plate reader (excitation: 485 nm; emission: 530 nm). A compound was regarded as active if the neurite outgrowth response was greater than the mean DMSO-treated control response on the same plate. The response to test compound was reported as percent of DMSO-treated control. The signal-to-noise separation was consistent: the fluorescence from DMSO control wells is at least two-fold greater than blank wells.

Structure (SMILES)	Rat Hippocampal Cell Response
CCC(C)(C)C(=O)C(=O)N1CCCC1C(=O)NNc1ncc(C(F)(F)F)cc1Cl (stereo not shown) [(8)]	106
CCC(C)(C)C(=O)C(=O)N1CCCC1C(=O)NNc1cc(C(F)(F)F)cc(C)n1 (stereo not shown) [(6)]	<100
CCC(C)(C)C(=O)C(=O)N1CCCC1C(=O)NNc1ccc2ccccc2n1 (stereo not shown) [(2)]	107
Cc1cc(C(F)(F)F)cc(NNC(=O)C2CCCCN2C(=O)C(=O)c2cccs2)n1 (stereo not shown) [Compound (9), 1-(2-Oxo-2-thiophen-2-yl-acetyl)piperidine-2-carboxylic acid N′-(6-methyl-4-trifluoromethyl-pyridin-2-yl)-hydrazide]	118
CCC(C)(C)C(=O)C(=O)N1CCCC1C(=O)NNc1cc(C)c2c(C)nn(C)c2n1 (stereo not shown) [(4)]	105
CCC(C)(C)C(=O)C(=O)N1CCCC1C(=O)NNc1ccccn1 (stereo not shown) [Compound (1), 1-(3,3-Dimethyl-2-oxo-pentanoyl)-pyrrolidine-2-carboxylic acid N′-pyridine-2-yl-hydrazide]	157
CCC(C)(C)C(=O)C(=O)N1CCCC1C(=O)NNc1ccncc1Br (stereo not shown) [(3)]	106
CCC(C)(C)C(=O)C(=O)N1CCCC1C(=O)NN(C)c1cc(C(F)(F)F)cc(C)n1 (stereo not shown) [(7)]	<100
O=C(NNc1ccccn1)[C@@H]1CCN1S(=O)(=O)Cc1ccccc1 [Compound (10), 2-Azetidinecarboxylic acid, 1-[(phenylmethyl)sulfonyl]-, 2-(2-pyridinyl)hydrazide, (2S)-]	115
CCC(C)(C)C(=O)C(=O)N1CCCC1C(=O)NNc1c([N+](=O)[O-])c(C)nn1C (stereo not shown) [(5)]	<100
